Data on two compounds can be found in patent publication US20110118238A1, “2-ANILINOPURIN-8-ONES AS INHIBITORS OF TTK/MPS1 FOR THE TREATMENT OF PROLIFERATIVE DISORDERS” (ASTRAZENECA AB, priority 2007, published 2011).

pIC50: −log10 of the molar value.

Assay [1] addresses T1, N-terminal GST tagged full length human TTK kinase (Homo sapiens, UniProt P33981).
T1 construct: N-terminal GST tagged full length human TTK kinase; GST (N); made in house; host or cells: insect cells
T1 sequence (P33981 1-857): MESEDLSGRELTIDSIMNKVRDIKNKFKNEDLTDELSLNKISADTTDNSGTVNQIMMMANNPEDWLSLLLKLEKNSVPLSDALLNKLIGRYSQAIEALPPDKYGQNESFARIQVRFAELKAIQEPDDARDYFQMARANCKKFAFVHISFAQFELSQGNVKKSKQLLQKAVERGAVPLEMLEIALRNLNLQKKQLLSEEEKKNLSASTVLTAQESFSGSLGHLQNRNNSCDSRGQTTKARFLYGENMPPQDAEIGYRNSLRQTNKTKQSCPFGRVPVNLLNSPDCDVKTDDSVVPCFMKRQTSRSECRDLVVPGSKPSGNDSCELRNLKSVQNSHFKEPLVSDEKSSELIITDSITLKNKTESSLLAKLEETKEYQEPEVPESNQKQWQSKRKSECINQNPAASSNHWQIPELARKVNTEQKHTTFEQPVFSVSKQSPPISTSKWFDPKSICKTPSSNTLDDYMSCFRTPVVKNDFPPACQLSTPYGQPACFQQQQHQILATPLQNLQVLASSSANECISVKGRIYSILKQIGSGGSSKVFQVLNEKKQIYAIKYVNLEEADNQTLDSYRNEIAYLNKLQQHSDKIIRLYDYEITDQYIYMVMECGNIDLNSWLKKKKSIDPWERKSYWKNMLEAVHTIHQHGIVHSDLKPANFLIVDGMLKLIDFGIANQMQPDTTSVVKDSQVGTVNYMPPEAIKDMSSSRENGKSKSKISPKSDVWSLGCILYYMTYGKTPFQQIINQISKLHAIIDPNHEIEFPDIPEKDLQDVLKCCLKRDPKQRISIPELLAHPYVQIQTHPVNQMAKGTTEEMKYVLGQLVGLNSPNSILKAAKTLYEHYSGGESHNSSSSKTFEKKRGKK
Put plainly: In Vitro TTK Kinase Assay 2 (Caliper LabChip LC3000). It counts as biochemical. The following applies: recombinant TTK, 12 μM ATP, read-out: EAA2: Enzyme Assay Activity (In Vitro TTK kinase assay 2). Here is the method:
Each reaction was stopped by the addition of EDTA to a concentration of 40 mM in a solution which also comprised 0.1% coating reagent (Caliper LS), 100 mM HEPES pH 7.5, 0.015% v/v Brij™-35 and 5% DMSO. The stopped enzyme reactions were sipped through capillaries onto a Caliper chip where the peptide substrate and phosphorylated product were separated and detected via laser-induced fluorescence.

Assay [2] concerns human colon tumour cell line HT29. As to the kind of experiment: Spindle Checkpoint Abrogation Assay (phosphohistone H3 serine 10). It counts as cell-based. The following applies: HT-29, HT29 cells, paclitaxol 7.8 nM, compound 5 h, histone H3 serine 10 positive cells, read-out: SCAA: Spindle checkpoint abrogation assay activity. The text has this: Chromosome condensation in mitosis is accompanied by phosphorylation of histone H3 on serine 10. Dephosphorylation begins in anaphase and ends at early telophase, thus histone H3 serine 10 phosphorylation acts as an excellent mitotic marker. Paclitaxol is a microtubule stabilising drug which perturbs microtubule dynamics, invokes the spindle checkpoint and arrests cells in mitosis. These cells are positive for histone H3 serine 10 phosphorylation. Inhibition of the spindle checkpoint overrides the mitotic block in the presence of paclitaxol and the histone H3 serine 10 endpoint is used as a marker to determine the ability of compounds of the present invention to exit mitotic arrest prematurely.
Cells of the human colon tumour cell line HT29 were seeded into 96 well black plates (Costar, Catalogue No 3904) in phenol red free Dulbecco's Modified Eagles Medium (DMEM) supplemented with 10% (v/v) FCS and 1% (v/v) L-Glutamine and incubated overnight at 37° C. Paclitaxol was added to the cells at a concentration of 7.8 nM and the cells incubated overnight prior to compound dosing. Test compounds were solubilised in DMSO, diluted to give a range of final assay concentrations, added to cells and incubated for 5 h at 37° C. […] The raw assay data were analysed by non-linear regression analysis and used to determine an IC50 value for each compound.

With `Cn1c(=O)n(C2CCCC2)c2nc(Nc3ccc(S(C)(=O)=O)cc3F)ncc21` [Example 3, 9-Cyclopentyl-2-{[2-fluoro-4-(methylsulfonyl)phenyl]amino}-7-methyl-7,9-dihydro-8H-purin-8-one], the results for the pIC50 in assay [1] and in assay [2] were 6.88 and 5.64, respectively.

As for `CN1CCN(S(=O)(=O)c2ccc(Nc3ncc4c(n3)n(C3CCCC3)c(=O)n4C)cc2)CC1` [Example 13, 9-Cyclopentyl-7-methyl-2-({4-[(4-methylpiperazin-1-yl)-sulfonyl]-phenyl}amino)-7,9-dihydro-8H-purin-8-one], the figures for the pIC50 in assay [1] and in assay [2] were 6.20 and 5.43, respectively.
